Assays:
Format in all cases: in vivo
Myzus persicae = assay: Insecticidal test, Myzus persicae (aphids), contact; conditions: 72 h, Chinese Cabbage leaf, 3 days, read-out: grading of mortality, MP
Description: (§1) The activity of the Product was determined using a variety of insect and acarine pests. The Product was used in the form of liquid preparations containing 500, 250 or 100 parts per million (ppm) by weight of the Product. The preparations were made by dissolving the Product in acetone and diluting the solutions with water containing 0.01% by weight of a wetting agent sold under the trade name "LISSAPOL" NX until the liquid preparations contained the required concentratio of the Product. "Lissapol" is a Registered Trade Mark.
(§2) The test procedure adopted with regard to each pest was basically the same and comprised supporting a number of the pests on a medium which was usually a host plant or a foodstuff on which the pests feed, and treating either or both the pests and the medium with the preparations. The mortality of the pests was then assessed at periods usually varying from one to three days after the treatment.
(§3) The results of the tests are given in Table IV for each of the Products, at the rate in parts per million given in the second column as a grading of mortality designated as A, B or C wherein A indicates 80-100% mortality or knockdown (70-100% in the case of Spodoptera exigua), B indicates 50-79% mortality or knockdown (50-69% in the case of Spodoptera exigua) and C indicates less than 50% mortality or knockdown.
(§4) In Table IV the pest organism used is designated by a letter code and the pest species, the support medium or food, and the type and duration of test is given in Table III.

Blattella germanica = assay: Insecticidal test, Blattella germanica (cockroach nymphs), residual; conditions: 72 h, plastic pot, 3 days, read-out: grading of mortality, BG
Description: as §1, §2, §3, §4

Tetranychus urticae = assay: Insecticidal/acaricidal test, Tetranychus urticae (spider mites - adult), contact; conditions: 72 h, 500 ppm, French bean leaf, 3 days, read-out: grading of mortality, TU
Description: as §1, §2, §3, §4

Nilaparvata lugens = assay: Insecticidal test, Nilaparvata lugens (brown planthopper), contact; conditions: 72 h, Cabbage leaf, 3 days, read-out: grading of mortality, NL
Description: as §1, §2, §3, §4

Diabrotica balteata = assay: Insecticidal test, Diabrotica balteata (rootworm larvae), residual; conditions: 72 h, filter paper/maize seed, 3 days, read-out: grading of mortality, DB
Description: as §1, §2, §3, §4

Musca domestica [1] = assay: Knockdown test, Musca domestica (houseflies - adults); conditions: cotton wool/sugar, 4 hours, read-out: grading of knockdown, MD/KD
Description: as §1, §2
In the case of the species Musca domestica (housefly), additional tests to determine the knockdown effect of the compounds were performed.
as §3, §4

Musca domestica [2] = assay: Insecticidal test, Musca domestica (houseflies - adults), contact; conditions: 24 h, cotton wool/sugar, 1 day, read-out: grading of mortality, MD
Description: as §1, §2, §3, §4

Heliothis virescens = assay: whole plant or invertebrate; conditions: in Gossypium hirsutum, 72 h, read-out: grading of mortality, HV
Description: as §1, §2, §3, §4

Row | Compound | mortality at 500 ppm (Myzus persicae) [%] | mortality at 500 ppm (Blattella germanica) [%] | mortality at 500 ppm (Tetranychus urticae) [%] | mortality at 500 ppm (Nilaparvata lugens) [%] | mortality at 500 ppm (Diabrotica balteata) [%] | pest or weed control at 500 ppm (Musca domestica [1]) [%] | mortality at 500 ppm (Musca domestica [2]) [%] | further results
1 | Fc1ccc(COCC(c2ccc(Cl)cc2)C(F)(F)F)cc1Oc1ccccc1 (stereo not drawn) [Compound 15] | 80 to 100 | 80 to 100 | 80 to 100 | 80 to 100 | 80 to 100 | 80 to 100 | 80 to 100 | –
2 | CCOc1ccc(C(Cl)(COCc2ccc(F)c(Oc3ccc(Br)cc3)c2)C(F)(F)F)cc1 (stereo not drawn) [Compound 43, 1,1,1-Trifluoro-2-chloro-2-(4-ethoxyphenyl)-3-(3-(4-bromophenoxy)-4-fluorobenzyloxy)propane] | 80 to 100 | 50 to 79 | 50 to 79 | 80 to 100 | < 50 | 80 to 100 | 80 to 100 | –
3 | Fc1ccc(COCC(F)(c2ccc(Cl)cc2)C(F)(F)F)cc1Oc1ccccc1 (stereo not drawn) [Compound 81, 1,1,1,2-tetrafluoro-2-(4-chlorophenyl)-3-(3-phenoxy-4-fluorobenzyloxy)propane] | 80 to 100 | 80 to 100 | < 50 | 80 to 100 | 80 to 100 | 80 to 100 | 80 to 100 | –
4 | CCOc1ccc(C(O)(COCc2c(F)c(F)c(C)c(F)c2F)C(F)(F)F)cc1 (stereo not drawn) [Compound 114, 1,1,1-Trifluoro-2-(4-ethoxyphenyl)-3-(4-methyl-2,3,5,6-tetrafluorobenzyloxy)propan-2-ol] | – | – | – | – | – | – | – | mortality at 100 ppm (Myzus persicae; 100 ppm): < 50%; mortality at 100 ppm (Blattella germanica; 100 ppm): < 50%; mortality at 100 ppm (Heliothis virescens): < 50%; mortality at 100 ppm (Nilaparvata lugens; 100 ppm): 50 to 79%; mortality at 100 ppm (Diabrotica balteata; 100 ppm): < 50%; pest or weed control at 100 ppm (Musca domestica [1]; 100 ppm): < 50%; mortality at 100 ppm (Musca domestica [2]; 100 ppm): < 50%
5 | CCOc1ccc(C(O)(COCc2ccc(F)c(Oc3ccc(Br)cc3)c2)C(F)(F)F)cc1 (stereo not drawn) [Compound 116, 1,1,1-Trifluoro-2-(4-ethoxyphenyl)-3-(3-(4-bromophenoxy)-4-fluorobenzyloxy)propan-2-ol] | < 50 | < 50 | 80 to 100 | < 50 | < 50 | 50 to 79 | 50 to 79 | –
6 | OC(COCc1cccc(Oc2ccccc2)c1)(c1ccc(OC(F)(F)F)cc1)C(F)(F)F (stereo not drawn) [Compound 139, 1,1,1-trifluoro-2-(4-trifluoromethoxyphenyl)-3-(3-phenoxybenzyloxy)-propan-2-ol] | < 50 | < 50 | – | < 50 | 80 to 100 | 80 to 100 | 80 to 100 | mortality at 500 ppm (Heliothis virescens): 80 to 100%
7 | CCOc1ccc(C(O)(COCc2cccc(Oc3ccccc3)n2)C(F)(F)F)cc1 (stereo not drawn) [Compound 141, 1,1,1-trifluoro-2-(4-ethoxyphenyl)-3-(6-phenoxy-2-pyridylmethyloxy)propan-2-ol] | < 50 | < 50 | – | 50 to 79 | 50 to 79 | 80 to 100 | 80 to 100 | mortality at 500 ppm (Heliothis virescens): 80 to 100%
8 | CCOc1ccc(C(COCc2ccc(F)c(Oc3ccccc3)c2)(OC(C)=O)C(F)(F)F)cc1 (stereo not drawn) [Compound 149, 1,1,1-trifluoro-2-acetoxy-2-(4-ethoxyphenyl)-3-(3-phenoxy-4-fluorobenzyloxy)propane] | – | – | – | – | – | – | – | mortality at 250 ppm (Myzus persicae): < 50%; mortality at 250 ppm (Blattella germanica): < 50%; mortality at 250 ppm (Heliothis virescens): 50 to 79%; mortality at 250 ppm (Nilaparvata lugens): 50 to 79%; mortality at 250 ppm (Diabrotica balteata): < 50%; pest or weed control at 250 ppm (Musca domestica [1]): < 50%; mortality at 250 ppm (Musca domestica [2]): < 50%
9 | CCOc1ccc(C(COCc2ccc(F)c(Oc3ccccc3)c2)(OC)C(F)(F)F)cc1 (stereo not drawn) [Compound 150, 1,1,1-trifluoro-2-methoxy-2-(4-ethoxyphenyl)-3-(3-phenoxy-4-fluorobenzyloxy)propane] | – | – | – | – | – | – | – | mortality at 250 ppm (Myzus persicae): 50 to 79%; mortality at 250 ppm (Blattella germanica): < 50%; mortality at 250 ppm (Heliothis virescens): 80 to 100%; mortality at 250 ppm (Nilaparvata lugens): < 50%; mortality at 250 ppm (Diabrotica balteata): 80 to 100%; pest or weed control at 250 ppm (Musca domestica [1]): < 50%; mortality at 250 ppm (Musca domestica [2]): < 50%

— patent US5225607A, “Insecticidal ethers” (Imperial Chemical Industries PLC, priority 1985, dated 1993)
